Experimental data as given in patent US5792444A, “Labeled chemotactic peptides to image focal sites of infection or inflammation” (The General Hospital Corporation, priority 1993, dated 1998).
Where a SMILES comes first, the peptide text is derived from it. [ ]: non-standard residue; d: D form. The star is where a group is joined. HYNIC = NNc1ccc(C(=O)*)cn1; Ac6c = NC1(C(=O)O)CCCCC1; Nle = CCCC[C@H](N)C(=O)O; For = O=C*

Key:
E. coli infection = test system: E. coli infection; parameters: species or system New Zealand white rabbits; conditions: rabbit, in vivo
Description: In order to determine the feasibility of using radiolabeled chemotactic peptides for infection localization in animals that are sensitive to the neutropenic effects of these agents, imaging studies were performed in rabbits with focal E. coli infections. High specific activity ^99m Tc-labeled chemotactic peptide was used in these studies. Six male New Zealand white rabbits weighing 2-3 kg were anesthetized with ketamine and xylazine (15.0 and 1.5 mg/kg) and injected in the left posterior thigh muscle with a 1.0 mL suspension of approximately 2×10^9 E. coli. […] Images were recorded for a preset time of 5 minutes/view with a 15% window centered to include the 140 KeV photopeak of ^99m Tc. […]
After acquiring the final images, the animals were sacrificed by pentobarbital overdose and samples of blood, heart, lung, liver, spleen, kidney, stomach, intestine, testes, bone, marrow, normal skeletal muscle, infected skeletal muscle, and pus were weighed and radioactivity was measured as described above. To correct for radioactive decay, aliquots of the injected doses were counted simultaneously. The results were expressed as percent injected dose per gram. […] The cells were washed with 0.9% NaCl and the residual radioactivity in the cells and supernatant measured. […]

[1] = target: T1, chemoattractant receptor on human PMN's (Homo sapiens, UniProt P21462); assay: For-MLF receptor binding assay (For-ML[3H]F displacement); conditions: 15 nM For-ML[3H]F, 45 min, 24° C.
T1 construct: endogenous in cells; host or cells: isolated human PMN's (neutrophils) from healthy volunteers, intact cells
T1 sequence (P21462 1-350): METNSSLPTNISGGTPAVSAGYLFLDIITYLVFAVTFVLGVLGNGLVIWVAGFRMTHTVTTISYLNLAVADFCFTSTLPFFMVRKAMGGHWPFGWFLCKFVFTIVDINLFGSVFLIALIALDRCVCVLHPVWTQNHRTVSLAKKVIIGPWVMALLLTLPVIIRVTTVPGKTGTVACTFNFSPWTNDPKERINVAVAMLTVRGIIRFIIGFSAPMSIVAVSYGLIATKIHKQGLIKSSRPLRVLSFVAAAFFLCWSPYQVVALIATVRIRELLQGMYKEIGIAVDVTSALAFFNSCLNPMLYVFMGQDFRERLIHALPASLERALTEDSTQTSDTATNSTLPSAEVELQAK
Description: Following incubation, the cells were filtered onto glass fiber discs (Whatman GF/C; Whatman, Inc., Clifton, N.J.) which were then washed with 20 mL of ice cold incubation buffer. The filters were placed in scintillation vials with 10 mL of Safety-Solve (Research Products International Corp., Mt. Prospect, Ill.) and radioactivity was measured by liquid scintillation spectroscopy. Specific binding is defined as total binding minus nonspecific binding. Nonspecific binding is the amount of residual bound radioactivity in the presence of 10 μM unlabeled For-MLF.
(§1) The chemical purity of the final product was evaluated by TLC, HPLC, UV spectroscopy, mass spectroscopy, and amino acid analysis. Determinations of the EC50 's for binding to the chemoattractant receptor on human PMN's and superoxide generation were performed as described in Pike, M. C., and Snyderman, R., Methods Enzymol. 162:236-245 (1988); Pike, M. C., et al., Blood 67:909-913 (1986); and Fischman, A. J., et al., J. Nucl. Med. 32:483-491 (1991).

[2] = Example 1: biological activity (EC50) of peptide and DTPA derivative
Text: The chemotactic peptide N-formyl-Nle-Leu-Phe-Nle-Tyr-Lys was synthesized using standard solid phase methods well-known in the art (Merrifield, R. B., J. Am. Chem. Soc. […]:2149-2154 (1963); Stewart, J. M., and Young, J. D., Solid Phase Peptide Synthesis, W. H. Freeman & Company, San Francisco, Calif. (1969)). The epsilon amino group of the C-terminal lysine was modified with DTPA using a cyclic anhydride. […] The peptide was readily radiolabeled with ^111 In.

sterile inflammation = test system: sterile inflammation; parameters: species or system Rhesus monkeys; conditions: rhesus monkey, in vivo
Description: Two adult female Rhesus monkeys weighing approximately 10 kg were used in the imaging experiments. Since these animals had been used previously in imaging experiments with other radiopharmaceuticals, they had received numerous intramuscular injections in the right posterior thigh during the induction of anesthesia.
Under light ketamine anesthesia (5.5 mg/kg), the animals were injected intravenously through a leg vein with approximately 0.5 mCi ^99m -Tc-labeled peptide (<2.0 ng/kg). At 5 min, 30 min, 1 hr, and 19 hrs following injection of radiolabeled peptide, the animals were anesthetized with ketamine/xylazine (15.0 and 1.5 mg/kg) and whole body scintigrams were acquired using a large field of view gamma camera equipped with a parallel hole high resolution low energy collimator interfaced to a dedicated computer system (Technicare Gemini 700, Technicare 560, Solon, Ohio). […] At 5 minutes prior to injection and 1, 3, 5, and 15 minutes after injection 0.5 mL samples of blood were collected and the CBC was measured.
Regions of interest were drawn over: the whole animal, cardiac blood pool, lung, liver, spleen, kidney, intestine, bone, normal muscle, and inflamed muscle; and count densities (CPM/pixel) were calculated. The results were expressed as tissue-to-blood pool, % injected dose/gram (%ID/g) and target to background ratios (inflamed thigh/contralateral thigh).

human neutrophils = assay: Assay of superoxide production (ferricytochrome C reduction); assay type: cell-based; conditions: 0.1 μM
Description: as §1

rabbit neutrophils = assay: Lysozyme release in rabbit neutrophils; assay type: cell-based
Description: The peptide that was prepared and tested was formyl-Met-Acc^6 -Phe--OH.

neutrophils [3] = target: T2, neutrophils (Homo sapiens, UniProt P21462); assay: Chemoattraction of human neutrophils; assay type: cell-based
T2 sequence (P21462 1-350): T1 sequence (P21462 1-350)
Description: (§2) In another preferred embodiment of the present invention, Y is 4-aminotetrahydropyran-4-carboxylic acid (Thp). […] The peptide that was prepared and tested was formyl-Thp-Leu-Phe-OMe.
The peptide that was prepared and tested was formyl-Met-Dpg-Phe--OH

neutrophils [4] = target: T2, neutrophils; assay: Superoxide production by human neutrophils (backbone analog); assay type: cell-based
Description: as §2

neutrophils [5] = target: T2, neutrophils; assay: MPO (myeloperoxidase assay) release; assay type: cell-based; conditions: pH5
Description: (§3) The procedure of Example 5 was repeated for additional CP's within the scope of the present invention. The results are shown in Table I. In the table, MPO is myeloperoxidase assay, a "-" sign means there was no effect at 30 μM, a "+" sign means there was a positive effect at 30 μM, and "N.T." means "Not

neutrophils [6] = target: T2, neutrophils; assay: Free radicals antagonist (inhibition of ForMLF stimulated free radical chemiluminescence); assay type: cell-based
[7] = test system: neutrophils / human umbilical vein endothelial cells; assay: cells; assay type: cell-based; conditions: read-out: Adhesion Antagonist IC50
Description: (§4) The unconjugated peptide iBoc-MLFK was evaluated in a neutrophil-endothelial cell adhesion assay. In this assay, neutrophils (5×10^5) labeled with 5-carboxyfluorescein diacetate were added into wells of a 48 well dish containing confluent human umbilical vein endothelial cells. The iBoc-MLFK peptide was added at a concentration of 10 μM 10 min prior to stimulation of neutrophils with 30 nM ForMLF. Percent adhesion was determined by washing off unattached neutrophils after an incubation period of 25 minutes. This peptide inhibited adhesion by 66% at this concentration. Subsequently, concentrations between 0.1-3.0 μM were examined. […] Inhibition of adhesion would reduce the infiltration of leukocytes, such as neutrophils, to a diseased site, thereby limiting the tissue damage associated with inflammation.
as §3

neutrophils [8] = target: T2, neutrophils; assay: Free radicals agonist (neutrophil free radical chemiluminescence); assay type: cell-based; conditions: class symbol
neutrophils [9] = target: T2, neutrophils; assay: Binding (Table I, Cell Biology Data)
Text: Three non-DTPA derivatized peptides were included in the assay for comparison.

[10] = test system: neutrophils / human umbilical vein endothelial cells; assay: Adhesion agonist (neutrophil-endothelial cell adhesion assay); assay type: cell-based; conditions: class symbol; read-out: Adhesion Agonist EC50
Description: as §4, §3

Molecule: CSCC[C@H](NC=O)C(=O)N[C@@H](CC(C)C)C(=O)N[C@@H](Cc1ccccc1)C(=O)N[C@H](CCCCNC(=O)c1ccc(NN)nc1)C(N)=O [Example 99mTc-HP4, metal not drawn] (For-MLF[dK](HYNIC)-NH2)
- percent residual circulating radioactivity that was cell associated (E. coli infection): approximately 25%
- radioactivity of pus associated with WBC's (E. coli infection): approximately 90%

Molecule: CCCC[C@H](NC=O)C(=O)N[C@@H](CC(C)C)C(=O)N[C@@H](Cc1ccccc1)C(=O)N[C@@H](CCCC)C(=O)N[C@@H](Cc1ccc(O)cc1)C(=O)N[C@@H](CCCCN)C(=O)O [For-NleLFNleYK, N-formyl-norleucyl-leucyl-phenylalanyl-norleucyl-tyrosyl-lysine] (For-[Nle]LF[Nle]YK-OH)
- EC50 [1]: 1 nM
- EC50 [2]: ~1 nM

Molecule: CSCC[C@H](NC=O)C(=O)N[C@@H](CC(C)C)C(=O)N[C@@H](Cc1ccccc1)C(=O)NCCCCCCNC(=O)c1ccc(NN)nc1 [HP3, For-MLFNH(CH2)6 NH-HYNIC]
- effects on WBC level (sterile inflammation): no significant effects

Molecule: CCCCCCCCCCCCCC(=O)O[C@@H]1[C@@H](C)[C@@]2(O)[C@@H](C=C(CO)C[C@]3(O)C(=O)C(C)=C[C@@H]23)[C@@H]2C(C)(C)[C@]12OC(C)=O [PMA, phorbol myristate acetate]
- maximal response of superoxide production (human neutrophils): 22.9 nmol 02^- produced/10^6 cells/10 min

Molecule: CSCC[C@H](NC=O)C(=O)NC1(C(=O)N[C@@H](Cc2ccccc2)C(=O)O)CCCCC1 [formyl-Met-Acc^6 -Phe--OH] (For-Met-[Ac6c]-Phe-OH)
- lysozyme release (rabbit neutrophils): potent inducer of lysozyme release

Molecule: formyl-Thp-Leu-Phe-OMe
- chemoattractant activity (neutrophils [3]): chemoattractant agent to human neutrophils
- stimulation of superoxide production (neutrophils [4]): did not stimulate superoxide production

Molecule: iBoc--MLF--O--SPNH [Example 38]
- EC50 (neutrophils [5]): 400 nM
- IC50 (neutrophils [6]): 5000 to 6000 nM
- IC50 [7]: > 30000 nM
- EC50 (neutrophils [8]): > 30000 nM
- EC50 (neutrophils [9]): 150 to 5000 nM
- EC50 [10]: < 30000 nM
